From US7875270B2, “Treatment solution and method for preventing posterior capsular opacification by selectively inducing detachment and/or death of lens epithelial cells” (Abbott Medical Optics Inc., priority 2002, dated 2011)

Experiments:
[1] = tested on: in vivo rabbit eyes; assay: In vivo prevention of PCO after cataract operation in rabbit eyes; conditions: bumetanide and hyperosmotic NaCl
Description: The experimental group includes sixteen rabbit eyes and the control group includes four rabbit eyes. A sham cataract operation is performed on the control animals. The therapy is introduced to the others.
The pupil of each rabbit eye is preoperatively dilated with topical G Phenylephrine 10% (Alcon Labs., Inc., China) and G Cyclopentolate 1% (Bausch & Lomb Pharm., Inc., USA) three times in one hour. The rabbits are anesthetized with ketamine hydrochloride (5 mg kg-1) and xylazine hydrochloride (2 mg kg-1) and placed on an operating table. A topical anesthetic (Dieaine hydrochloride 1%) is used every five minutes on two occasions. A wire lid speculum is placed to hold the eyelids open.
A 3.2 mm scleral tunnel incision into the eye is formed at the temporal limbus. The anterior chamber is maintained with viscoelastic substances and a 4-5 mm diameter continuous curvilinear capsularhexis (CCC) is made on the anterior surface of the lens to open its bag. The treatment solution is first introduced in the LECs by hydrodissection. This ensures that the treatment fluid immediately reaches under the entire anterior capsule/LECs. This process allows for (i) separation of the lens cortex from the capsule and lens epithelium, making removal of the lens cortex easier at a later stage of the operation and (ii) the LECs to be exposed to the treatment for enough time (more than five minutes in total time).
The crystalline lens is then removed using phacoemulsification (Universal II, Alcon Labs., Inc., China). The remaining cortex is aspirated thoroughly and removed as completely as possible to expose the LECs. The lens capsular bag is then partially filed with viscoelastic material in order to maintain its shape. The viscoelastic material should not cover the LECs when the treatment solution is applied.
The treatment is spread over the inner surface of the anterior capsular bag (where the LECs attach). The anterior capsular is continuously filled by using a syringe with a bent needle. Care is taken not to over flow the bag. After the treatment solution covered the capsule bag, it is left for five minutes and then removed using a syringe.
In a few cases, IOLs are inserted. […] At the same time, the incision is enlarged to 6.0 mm and a posterior ocular lens (IOLs) (poly-methyl methacrylate, PMMA) with a 6.5 mm optic is prepared and placed into the capsular bag.
The wound is closed with or without suture.
At the completion of the surgical procedure, each rabbit eye receives subconjunctival dexamethasone (0.25 ml) and gentamicin (0.25 ml). Postoperatively, atropine sulphate 1% ophthalmic solution and neomycin sulphate-polymyxin sulphate-dexamethasone ophthalmic ointment are administered twice daily for three weeks.
The animals are evaluated for three weeks and ten weeks. […] All rabbits are evaluated by slitlamp and scored for ocular responses at 1 day and at 1, 2 and 3 weeks. (See FIG. 17, Table 1.) Three and ten weeks after surgery, the animals are anesthetized using a 2 ml intramuscular injection of 11:1 mixture of ketamine hydrochloride and xylazine 20 mg/ml and then killed with a 2 ml intravenous injection of sodium pentobarbital.
The eye globes are enucleated (some of them fixed in neutral buffered formalin 10% solution for 24 hours) and are bisected coronally just anterior to the equator. Gross examination is performed to assess. PCO development. Photographs are taken from behind (Miyake-Apple posterior photographic technique) by using a digital camera fitted to an operating microscope (Leica/Wild MZ-8, Vashaw Scientific, Inc.).
The extent and severity of PCO is scored (see FIG. 17, Table 1) according to methods reported in the literature. The lens capsules are then fixed and evaluated under a microscope (Olumpus, Optical Co. Ltd.) and photographed with a digital camera.

[2] = tested on: human lens epithelial cells (LECs); assay: Confluent LEC monolayers exposed to solutions; MTT cell viability and microscopy; format: cell-based; conditions: 28 μM, 112 μM and 224 μM bumetanide, ≦200 mM NaCl, 3 μl of 5N NaOH

CCCCNc1cc(C(=O)O)cc(S(N)(=O)=O)c1Oc1ccccc1 [bumetanide]
Soemmering's ring [1]: Some degree of Soemmering's ring forms
cell proliferation on the lens anterior capsule ([1]; three weeks): not significant cell proliferation
development of CPCO and PPCO ([1]; three weeks follow up): no CPCO and PPCO develop
LECs showing MTT negative response [2]: ~100%
LEC response under phase-contrast microscopic observation ([2]; about ten minutes): nearly all of the LECs shrink, detach and/or die
